Measurements reported in PubChem BioAssay AID588472 (The Scripps Research Institute Molecular Screening Center, 2011).
pIC50: −log10 of the molar value.

Experiments:
Test in all cases: PubChem AID 588472
[1] = target: Protein-arginine deiminase type-1 (Homo sapiens) (UniProt Q9ULC6); settings: recombinant PAD1-4, colorimetric citrullination assay; PAD1
[2] = target: Protein-arginine deiminase type-2 (Homo sapiens) (UniProt Q9Y2J8); settings: recombinant PAD1-4, colorimetric citrullination assay; PAD2
Protein-arginine deiminase type-2 (Homo sapiens), sequence (Q9Y2J8 whole entry, looked up): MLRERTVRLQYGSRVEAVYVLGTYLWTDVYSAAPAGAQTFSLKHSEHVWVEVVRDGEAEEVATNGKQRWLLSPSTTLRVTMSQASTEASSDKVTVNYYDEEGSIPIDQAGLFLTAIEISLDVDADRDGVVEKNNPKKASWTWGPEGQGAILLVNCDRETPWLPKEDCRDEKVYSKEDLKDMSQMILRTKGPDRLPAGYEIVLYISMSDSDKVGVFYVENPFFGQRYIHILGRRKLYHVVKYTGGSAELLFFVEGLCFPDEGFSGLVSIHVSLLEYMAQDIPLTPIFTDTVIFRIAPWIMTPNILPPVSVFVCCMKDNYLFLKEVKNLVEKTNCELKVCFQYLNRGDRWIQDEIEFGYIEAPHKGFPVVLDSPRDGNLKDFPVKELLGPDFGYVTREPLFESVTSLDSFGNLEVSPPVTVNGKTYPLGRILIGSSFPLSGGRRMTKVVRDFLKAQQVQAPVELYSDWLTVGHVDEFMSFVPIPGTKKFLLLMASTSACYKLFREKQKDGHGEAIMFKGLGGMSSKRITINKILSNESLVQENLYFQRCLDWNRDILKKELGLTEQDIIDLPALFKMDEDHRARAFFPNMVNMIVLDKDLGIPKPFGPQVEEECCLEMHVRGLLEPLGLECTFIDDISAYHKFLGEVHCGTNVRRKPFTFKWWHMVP

[3] = target: Protein-arginine deiminase type-3 (Homo sapiens) (UniProt Q9ULW8); settings: recombinant PAD1-4, colorimetric citrullination assay; PAD3
Protein-arginine deiminase type-3 (Homo sapiens), sequence (Q9ULW8 whole entry, looked up): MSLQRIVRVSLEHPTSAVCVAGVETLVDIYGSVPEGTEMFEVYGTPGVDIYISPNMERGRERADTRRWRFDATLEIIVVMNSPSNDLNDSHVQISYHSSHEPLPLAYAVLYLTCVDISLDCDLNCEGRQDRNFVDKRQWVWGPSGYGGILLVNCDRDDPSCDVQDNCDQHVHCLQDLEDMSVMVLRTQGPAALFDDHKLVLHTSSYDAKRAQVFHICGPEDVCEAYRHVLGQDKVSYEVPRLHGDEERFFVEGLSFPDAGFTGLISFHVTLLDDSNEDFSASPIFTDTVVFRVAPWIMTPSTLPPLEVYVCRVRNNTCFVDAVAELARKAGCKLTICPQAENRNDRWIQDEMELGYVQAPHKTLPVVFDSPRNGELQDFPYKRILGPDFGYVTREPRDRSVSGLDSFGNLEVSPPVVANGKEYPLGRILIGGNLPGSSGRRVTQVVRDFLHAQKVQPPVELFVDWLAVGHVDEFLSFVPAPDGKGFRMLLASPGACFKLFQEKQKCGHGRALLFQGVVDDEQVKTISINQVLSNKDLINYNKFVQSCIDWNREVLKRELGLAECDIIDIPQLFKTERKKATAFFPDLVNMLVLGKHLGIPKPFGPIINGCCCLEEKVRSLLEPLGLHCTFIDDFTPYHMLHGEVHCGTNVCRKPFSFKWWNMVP

[4] = target: Protein-arginine deiminase type-4 (Homo sapiens) (UniProt Q9UM07); settings: recombinant PAD1-4, colorimetric citrullination assay; PAD4
Protein-arginine deiminase type-4 (Homo sapiens), sequence (Q9UM07 whole entry, looked up): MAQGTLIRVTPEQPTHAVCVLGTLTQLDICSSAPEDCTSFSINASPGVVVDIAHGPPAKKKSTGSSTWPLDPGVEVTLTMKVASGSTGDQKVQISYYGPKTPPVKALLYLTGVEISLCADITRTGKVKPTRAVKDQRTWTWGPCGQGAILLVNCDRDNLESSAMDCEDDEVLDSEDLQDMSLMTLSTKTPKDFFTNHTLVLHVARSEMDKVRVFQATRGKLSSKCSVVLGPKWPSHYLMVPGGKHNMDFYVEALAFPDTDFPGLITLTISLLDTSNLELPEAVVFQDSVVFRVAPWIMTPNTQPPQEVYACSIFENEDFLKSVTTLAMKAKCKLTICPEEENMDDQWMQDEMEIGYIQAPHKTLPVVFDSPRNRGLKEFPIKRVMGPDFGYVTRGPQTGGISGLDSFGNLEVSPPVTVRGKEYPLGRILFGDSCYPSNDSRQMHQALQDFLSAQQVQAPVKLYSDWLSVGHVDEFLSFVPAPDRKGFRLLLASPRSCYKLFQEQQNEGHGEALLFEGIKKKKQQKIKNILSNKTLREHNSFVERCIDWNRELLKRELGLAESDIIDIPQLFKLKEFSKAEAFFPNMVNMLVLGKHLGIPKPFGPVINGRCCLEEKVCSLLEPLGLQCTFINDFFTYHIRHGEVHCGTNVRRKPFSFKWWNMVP

Protein-arginine deiminase type-1 (Homo sapiens), sequence (Q9ULC6 whole entry, looked up): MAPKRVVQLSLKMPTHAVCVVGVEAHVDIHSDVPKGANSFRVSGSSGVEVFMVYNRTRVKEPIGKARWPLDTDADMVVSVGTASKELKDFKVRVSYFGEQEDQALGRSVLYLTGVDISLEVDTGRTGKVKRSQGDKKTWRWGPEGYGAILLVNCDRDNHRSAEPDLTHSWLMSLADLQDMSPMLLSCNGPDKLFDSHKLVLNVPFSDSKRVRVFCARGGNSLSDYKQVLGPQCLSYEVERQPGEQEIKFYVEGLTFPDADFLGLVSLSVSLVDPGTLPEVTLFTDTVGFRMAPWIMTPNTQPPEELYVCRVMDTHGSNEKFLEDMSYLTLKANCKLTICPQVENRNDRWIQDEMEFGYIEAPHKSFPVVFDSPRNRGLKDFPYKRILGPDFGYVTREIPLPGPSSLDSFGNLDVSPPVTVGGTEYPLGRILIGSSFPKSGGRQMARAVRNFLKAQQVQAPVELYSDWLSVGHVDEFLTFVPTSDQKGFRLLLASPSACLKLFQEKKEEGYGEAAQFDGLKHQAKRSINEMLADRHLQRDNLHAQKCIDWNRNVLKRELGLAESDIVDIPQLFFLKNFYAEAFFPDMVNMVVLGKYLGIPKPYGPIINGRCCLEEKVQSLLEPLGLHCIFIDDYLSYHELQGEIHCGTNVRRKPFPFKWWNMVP

pIC50 [1]: 6.01 | pIC50 [2]: 6.13 | pIC50 [3]: 6.77 | pIC50 [4]: 6.00
Compound: NC1=CC(=O)c2cccnc2C1=O
